Measured values: patent US8765779B2, “Tricyclic derivatives and their pharmaceutical use and compositions” (Cephalon, Inc., priority 2009, dated 2014)
Structures can show the parent of a compound that is named as a salt. Where two headings read alike, the source gives them in different places.

Assays:
human 5-HT6 receptor = target: T1, human 5-HT6 receptor (Homo sapiens, UniProt P50406); experiment: Human 5-HT6 Receptor Binding Assay ([3H]LSD displacement, scintillation beads); details: membranes of CHO-K1 cells with recombinant human 5-HT6, 4 nM [3H]LSD, read-out: h5-HT6 (Ki)
T1 construct: host or cells: CHO-K1 cells, stably transfected; membranes prepared in house
T1 sequence (P50406 whole entry): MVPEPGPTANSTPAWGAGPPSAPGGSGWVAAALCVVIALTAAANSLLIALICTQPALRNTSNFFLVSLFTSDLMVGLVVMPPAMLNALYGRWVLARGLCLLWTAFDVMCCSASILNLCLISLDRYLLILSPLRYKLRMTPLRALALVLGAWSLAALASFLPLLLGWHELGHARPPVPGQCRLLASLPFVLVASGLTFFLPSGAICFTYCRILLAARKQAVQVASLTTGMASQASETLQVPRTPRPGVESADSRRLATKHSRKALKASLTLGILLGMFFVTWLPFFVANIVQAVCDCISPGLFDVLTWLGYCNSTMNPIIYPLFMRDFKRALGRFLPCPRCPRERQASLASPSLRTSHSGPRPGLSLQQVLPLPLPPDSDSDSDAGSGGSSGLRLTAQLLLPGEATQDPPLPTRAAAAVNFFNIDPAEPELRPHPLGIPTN

SMILES	melting point	Ki (human 5-HT6 receptor; Table 1, class symbols)	Ki (human 5-HT6 receptor; specific data)
CC1(CN)NCCc2c1oc1cc(S(=O)(=O)c3cccc(F)c3)ccc21 (centres unmarked) [Example 493, 1-{7-[(3-Fluorophenyl)sulfonyl]-1-methyl-1,2,3,4-tetrahydro[1]benzofuro[2,3-c]pyridin-1-yl}methanamine]	> 250 °C (dec.)	< 500 nM	
CC12CCNCC1Oc1ccc(S(=O)(=O)c3cccc(F)c3)cc12 (centres unmarked) [Example 90]	168 to 171 °C	< 500 nM	
CC(C)Oc1cccc(S(=O)(=O)c2ccc3c4c(oc3c2)CNCC4(C)C)c1 [Example 87]	251 to 252 °C	< 500 nM	
CC(=O)NCC1(C)NCCc2c1oc1cc(S(=O)(=O)c3cccc(F)c3)ccc21 (centres unmarked) [Example 492, N-({7-[(3-fluorophenyl)sulfonyl]-1-methyl-1,2,3,4-tetrahydro[1]benzofuro[2,3-c]pyridin-1-yl}methyl)acetamide]	140 to 155 °C (dec.)	< 500 nM	
CC1(C(F)F)NCCc2c1oc1cc(S(=O)(=O)c3cccc(F)c3F)ccc21 (single isomer, unassigned; enantiomer 2) [Example 472, 1-(Difluoromethyl)-7-[(2,3-difluorophenyl)sulfonyl]-1-methyl-1,2,3,4-tetrahydro[1]benzofuro[2,3-c]pyridine, enantiomer 2]	249 to 252 °C	< 500 nM	
CC12CCNCC1Oc1ccc(S(=O)(=O)c3cccc(Cl)c3Cl)cc12 (centres unmarked) [Example 106]	244 to 246 °C	< 500 nM	
O=S(=O)(c1cccc(F)c1)c1ccc2c3c(oc2c1)C1(COC1)NCC3 [Example 48, 7-[(3-fluorophenyl)sulfonyl]-3,4-dihydro-2H-spiro[1-benzofuro[2,3-c]pyridine-1,3′-oxetane]]	153 to 155 °C	< 500 nM	
CC12CCNCC1Oc1ccc(S(=O)(=O)c3ccccc3F)cc12 (centres unmarked) [Example 99, 6-[(2-fluorophenyl)sulfonyl]-4a-methyl-1,2,3,4,4a,9a-hexahydro[1]benzofuro[2,3-c]pyridine]	260 to 262 °C	< 500 nM	243 nM
O=S(=O)(c1ccc2c3c(oc2c1)C1(CCOC1)NCC3)c1cccc(F)c1F (single isomer, unassigned; enantiomer 1) [Example 473, 7-[(2,3-Difluorophenyl)sulfonyl]-3,4,4′,5-tetrahydro-2H-spiro[1-benzofuro[2,3-c]pyridine-1,3′-furan], enantiomer 1]	269 to 272 °C	< 500 nM	
O=S(=O)(c1cc(F)cc(F)c1)c1ccc2c3c(oc2c1)C1(CCCOC1)NCC3 (racemic) [Example 24, 7-[(3,5-difluorophenyl)sulfonyl]-3,4,5′,6′-tetrahydro-2H,4′H-spiro[1-benzofuro[2,3-c]pyridine-1,3′-pyran]]	85 to 95 °C	< 500 nM	
CC12CCNCC1Oc1ccc(S(=O)(=O)c3ccc(F)cc3F)cc12 (centres unmarked) [Example 93]	215 to 216 °C	500 to 1000 nM	
CC12CCNCC1Oc1ccc(S(=O)(=O)c3ccccn3)cc12 (centres unmarked) [Example 91]	255 to 257 °C	> 1000 nM	
COc1ccc(S(=O)(=O)c2ccc3c(c2)C2(C)CCNCC2O3)cc1F (centres unmarked) [Example 95]	185 to 187 °C	< 500 nM	
CC12CCNCC1Oc1ccc(S(=O)(=O)c3cccc(Cl)c3)cc12 (centres unmarked) [Example 100]	160 to 162 °C	< 500 nM	
COc1ccc(Cl)cc1S(=O)(=O)c1ccc2c3c(oc2c1)CNCC3 [Example 80]	258 to 259 °C	< 500 nM	
COc1ccccc1S(=O)(=O)c1ccc2c(c1)OC1CNCCC21C (racemic) (as salt: HCl) [Example 3, 7-[(2-methoxyphenyl)sulfonyl]-4a-methyl-1,2,3,4,4a,9a-hexahydro[1]benzofuro[2,3-c]pyridine]	222 to 224 °C		
CC(C)Oc1cccc(S(=O)(=O)c2ccc3c4c(oc3c2)C2(CCCOC2)NCC4)c1 (racemic) (as salt: HCl) [Example 23, 7-{[3-(propan-2-yloxy)phenyl]sulfonyl}-3,4,5′,6′-tetrahydro-2H,4′H-spiro[1-benzofuro[2,3-c]pyridine-1,3′-pyran]]	148 to 155 °C (dec.)		
CN(C)C(=O)CC1(C)NCCc2c1oc1cc(S(=O)(=O)c3cccc(F)c3)ccc21 (single isomer, unassigned) (as salt: HCl) [Example 50, 2-{7-[(3-fluorophenyl)sulfonyl]-1-methyl-1,2,3,4-tetrahydro[1]benzofuro[2,3-c]pyridin-1-yl}-N,N-dimethylacetamide]	230 to 233 °C		
CC1(C)NCCc2c1oc1ccc(S(=O)(=O)c3cccc(F)c3)cc21 (as salt: HCl) [Example 42, 6-[(3-fluorophenyl)sulfonyl]-1,1-dimethyl-1,2,3,4-tetrahydro[1]benzofuro[2,3-c]pyridine]	> 200 °C		
CC(C)Oc1cccc(S(=O)(=O)c2ccc3c(c2)OC2CNCCC32C)c1 (single isomer, unassigned) (as salt: HCl) [Example 20, 4a-methyl-7-{[3-(propan-2-yloxy)phenyl]sulfonyl}-1,2,3,4,4a,9a-hexahydro[1]benzofuro[2,3-c]pyridine]	184 to 185 °C		

Further lines, with some results ahead:

melting point	Ki (human 5-HT6 receptor; Table 1, class symbols)	SMILES	Ki (human 5-HT6 receptor; specific data)
128 to 130 °C	< 500 nM	Cc1cncc(Oc2cccc(S(=O)(=O)c3ccc4c(c3)OC3CNCCC43)c2)n1 (centres unmarked) [Example 63]	
188 to 189 °C	< 500 nM	Cc1c(Cl)cccc1S(=O)(=O)c1ccc2c(c1)OC1CNCCC21 (centres unmarked) [Example 66]	
228 to 229 °C	< 500 nM	CC(=O)Nc1cccc(S(=O)(=O)c2ccc3c(c2)OC2CNCCC32)c1 (centres unmarked) [Example 73]	
200 to 201 °C	> 1000 nM	Cc1ccc2nsnc2c1S(=O)(=O)c1ccc2c(c1)OC1CNCCC21 (centres unmarked) [Example 70]	
222 to 223 °C	< 500 nM	O=S(=O)(c1ccc2c(c1)OC1CNCCC21)c1c(Cl)cccc1Cl (centres unmarked) [Example 64]	
245 to 246 °C	< 500 nM	O=S(=O)(c1ccc2c3c(oc2c1)CNCC3)c1cccc(Cl)c1F [Example 81]	
202 to 203 °C	< 500 nM	COc1cc(OCc2ccccc2)cc(S(=O)(=O)c2ccc3c(c2)OC2CNCCC32)c1 (centres unmarked) [Example 76]	
195 to 196 °C	< 500 nM	O=S(=O)(c1ccc2c(c1)OC1CNCCC21)c1nc2ccccc2s1 (centres unmarked) [Example 65]	
222 to 223 °C	> 1000 nM	COc1ccc2sc(S(=O)(=O)c3ccc4c(c3)OC3CNCCC43)nc2c1 (centres unmarked) [Example 71]	
216 to 217 °C	< 500 nM	COc1cc2c(cc1S(=O)(=O)c1cccc(Cl)c1Cl)C1CCNCC1O2 (centres unmarked) [Example 88]	
179 to 182 °C		O=S(=O)(c1cccc(OCc2ccccn2)c1)c1ccc2c(c1)OC1CNCCC21 (centres unmarked) (as salt: HCl) [Example 562]	
221 to 223 °C		CC(C)Oc1cccc(S(=O)(=O)c2ccc3c(c2)OC2CNCCC32)c1F (centres unmarked) (as salt: HCl) [Example 481]	
186 to 188 °C		O=S(=O)(c1cccc(OCC2CCOCC2)c1)c1ccc2c(c1)OC1CNCCC21 (centres unmarked) (as salt: HCl) [Example 581, 7-{[3-(tetrahydro-2H-pyran-4-ylmethoxy)phenyl]sulfonyl}-1,2,3,4,4a,9a-hexahydro[1]benzofuro[2,3-c]pyridine]	
